Assay results as given in US9796704B2, “Substituted quinazolines as receptor-type kinase inhibitors” (Symphony Evolution, Inc., priority 2002, dated 2017).

Assays:
[1] = molecular target: EGFR (Homo sapiens (Human), UniProt P00533); assay: EGFR kinase inhibition, luciferase-coupled chemiluminescent assay (LCCA); details: read-out: EGFR IC50
[2] = molecular target: EphA2 (Homo sapiens (Human), UniProt P29317); assay: EphA2 kinase inhibition, luciferase-coupled chemiluminescent assay (LCCA); details: read-out: EphA2 IC50
[3] = molecular target: EphB4 (Homo sapiens (Human), UniProt P54760); assay: EphB4 kinase inhibition, 33P phosphoryl transfer assay (radiometric); format: biochemical
Description: Phosphorylated substrate products are quantified by scintillation spectrometry.
Kinase activity and compound inhibition are investigated using one or more of the three assay formats described below. The ATP concentrations are selected near its Michaelis-Menten constant (KM) for each individual kinase. Dose-response experiments are performed at ten different inhibitor concentrations in a 384-well plate format. […] These parameters are obtained by nonlinear regression algorithm built into ActivityBase software (available from ID Business Solutions Ltd., of Guildford, Surrey, UK). ^33P Phosphoryl Transfer Assay (Radiometric)
Greiner 384-well white clear bottom high binding plates (available from Greiner Bio-One, Inc., of Longwood, Fla.) are coated with 2 μg/well of protein or peptide substrate in a 50 μL volume overnight at ambient temperature. […] The coating solution is aspirated and the plates are washed once with 50 μL of assay buffer and padded dry. Subsequently compounds and enzymes are mixed with γ ^33P-ATP (3.3 μCi/nmol) in a total volume of 20 uL in suitable assay buffers (see Table 2). For example the final EphB4 reaction solution contains 20 mM TrisHCl, pH 7.5, 10 mM MgCl2, 0.01% Triton X-100, 0.1 mM NaVO3, 5 nM EphB4 enzyme and 5 μM ATP. […] The plates are subsequently washed 6-12 times with PBST or TBS buffer.

Sequence of EphA2 (P29317 598-890): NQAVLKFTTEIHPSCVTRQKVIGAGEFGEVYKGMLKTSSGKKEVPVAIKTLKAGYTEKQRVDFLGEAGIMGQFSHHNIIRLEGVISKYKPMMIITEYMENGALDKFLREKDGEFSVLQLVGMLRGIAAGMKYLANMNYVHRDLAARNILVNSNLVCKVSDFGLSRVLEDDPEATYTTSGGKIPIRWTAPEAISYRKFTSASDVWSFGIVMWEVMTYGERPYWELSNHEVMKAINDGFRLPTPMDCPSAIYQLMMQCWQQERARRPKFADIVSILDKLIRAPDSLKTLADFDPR
Sequence of EGFR (P00533 672-1210): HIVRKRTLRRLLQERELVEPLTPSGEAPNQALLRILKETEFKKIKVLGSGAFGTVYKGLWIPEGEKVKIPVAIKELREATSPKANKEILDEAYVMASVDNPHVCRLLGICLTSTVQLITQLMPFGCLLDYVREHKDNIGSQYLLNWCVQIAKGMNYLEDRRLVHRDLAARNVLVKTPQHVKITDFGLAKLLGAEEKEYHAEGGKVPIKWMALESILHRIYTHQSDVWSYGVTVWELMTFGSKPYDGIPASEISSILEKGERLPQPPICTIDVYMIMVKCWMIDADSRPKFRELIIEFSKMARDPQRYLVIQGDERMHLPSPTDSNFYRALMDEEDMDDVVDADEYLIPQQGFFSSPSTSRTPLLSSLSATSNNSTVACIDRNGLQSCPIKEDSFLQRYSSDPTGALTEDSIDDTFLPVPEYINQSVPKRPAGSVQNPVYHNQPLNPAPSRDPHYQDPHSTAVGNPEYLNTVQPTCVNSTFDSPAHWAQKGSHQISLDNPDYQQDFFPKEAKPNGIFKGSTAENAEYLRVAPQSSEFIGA
Sequence of EphB4 (P54760 605-890): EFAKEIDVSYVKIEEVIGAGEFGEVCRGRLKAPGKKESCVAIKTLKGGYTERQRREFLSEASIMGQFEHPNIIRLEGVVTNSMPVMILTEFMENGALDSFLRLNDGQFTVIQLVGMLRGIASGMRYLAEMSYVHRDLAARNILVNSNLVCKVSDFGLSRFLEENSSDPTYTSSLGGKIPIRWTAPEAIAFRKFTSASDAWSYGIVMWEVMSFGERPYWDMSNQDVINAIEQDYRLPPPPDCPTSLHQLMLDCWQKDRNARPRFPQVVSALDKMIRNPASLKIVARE

| SMILES | IC50 [1] | IC50 [2] | IC50 [3] |
| --- | --- | --- | --- |
| COc1cc2c(Nc3ccc(Cl)c(Cl)c3)ncnc2cc1OCC1CN(C(C)C)CCCO1 (stereo not drawn) [Example 261, N-(3,4-dichlorophenyl)-7-({[4-(1-methylethyl)-1,4-oxazepan-2-yl]methyl}oxy)-6-(methyloxy)quinazolin-4-amine] | < 50 nM | 1000 to 20000 nM | 50 to 1000 nM |
| COc1cc2c(Nc3ccc(Cl)c(Cl)c3)ncnc2cc1OCC1CN(C)CCO1 (stereo not drawn) [Example 151, N-(3,4-dichlorophenyl)-7-{[(4-methylmorpholin-2-yl)methyl]oxy}-6-(methyloxy)quinazolin-4-amine] | < 50 nM | 50 to 1000 nM | 50 to 1000 nM |
| CCOC(=O)C(C)N1CCOC(COc2cc3ncnc(Nc4ccc(Cl)c(Cl)c4)c3cc2OC)C1 (stereo not drawn) [Example 273, ethyl 2-[2-({[4-[(3,4-dichlorophenyl)amino]-6-(methyloxy)quinazolin-7-yl]oxy}methyl)morpholin-4-yl]propanoate] | < 50 nM | 1000 to 20000 nM | 1000 to 20000 nM |
| COCCN1CCCOC(COc2cc3ncnc(Nc4ccc(Cl)c(Cl)c4)c3cc2OC)C1 (stereo not drawn) [Example 260, N-(3,4-dichlorophenyl)-6-(methyloxy)-7-[({4-[2-(methyloxy)ethyl]-1,4-oxazepan-2-yl}methyl)oxy]quinazolin-4-amine] | < 50 nM | 1000 to 20000 nM | 50 to 1000 nM |
| COc1cc2c(Nc3ccc(Cl)c(Cl)c3)ncnc2cc1OCC1CN(C)CCN1C (stereo not drawn) [Example 268, N-(3,4-dichlorophenyl)-7-{[(1,4-dimethylpiperazin-2-yl)methyl]oxy}-6-(methyloxy)quinazolin-4-amine] | < 50 nM | 1000 to 20000 nM | 50 to 1000 nM |
| COc1cc2c(Nc3ccc(Cl)c(Cl)c3)ncnc2cc1OCc1nc(-c2ccc(O)c(C(N)=O)c2)cs1 [Example 200, 5-[2-({[4-[(3,4-dichlorophenyl)amino]-6-(methyloxy)quinazolin-7-yl]oxy}methyl)-1,3-thiazol-4-yl]-2-hydroxybenzamide] | < 50 nM | 50 to 1000 nM | 50 to 1000 nM |
| CCN1CCCOC(COc2cc3ncnc(Nc4ccc(Cl)c(Cl)c4)c3cc2OC)C1 (stereo not drawn) [Example 241, N-(3,4-dichlorophenyl)-7-{[(4-ethyl-1,4-oxazepan-2-yl)methyl]oxy}-6-(methyloxy)quinazolin-4-amine] | < 50 nM | < 50 nM | < 50 nM |
| COc1cc2c(Nc3ccc(Cl)c(Cl)c3)ncnc2cc1OCC1CN(C(C)C)CCO1 (stereo not drawn) [Example 270, N-(3,4-dichlorophenyl)-7-({[4-(1-methylethyl)morpholin-2-yl]methyl}oxy)-6-(methyloxy)quinazolin-4-amine] | < 50 nM | 1000 to 20000 nM | 50 to 1000 nM |
| COc1cc2c(Nc3ccc(Cl)c(Cl)c3)ncnc2cc1OC[C@H]1O[C@H](OC)[C@H](O)[C@@H](O)[C@@H]1O (stereo in doubt) [Example 194, methyl 6-O-[4-[(3,4-dichlorophenyl)amino]-6-(methyloxy)quinazolin-7-yl]-alpha-D-glucopyranoside] | < 50 nM | 50 to 1000 nM | < 50 nM |
| COc1cc2c(Nc3ccc(Cl)c(Cl)c3)ncnc2cc1O[C@H]1CO[C@H]2[C@@H]1OC[C@@H]2OC [Example 72, 1,4:3,6-dianhydro-2-O-[4-[(3,4-dichlorophenyl)amino]-6-(methyloxy)quinazolin-7-yl]-5-O-methyl-L-iditol] | < 50 nM | 50 to 1000 nM | 50 to 1000 nM |
| COCCN1CCOC(COc2cc3ncnc(Nc4ccc(Cl)c(Cl)c4)c3cc2OC)C1 (stereo not drawn) [Example 272, N-(3,4-dichlorophenyl)-6-(methyloxy)-7-[({4-[2-(methyloxy)ethyl]morpholin-2-yl}methyl)oxy]quinazolin-4-amine] | < 50 nM | 1000 to 20000 nM | 50 to 1000 nM |
| CCN1CCCC1c1nc(COc2cc3ncnc(Nc4ccc(Cl)c(Cl)c4)c3cc2OC)no1 (stereo not drawn) [Example 264, N-(3,4-dichlorophenyl)-7-({[5-(1-ethylpyrrolidin-2-yl)-1,2,4-oxadiazol-3-yl]methyl}oxy)-6-(methyloxy)quinazolin-4-amine] | < 50 nM | 1000 to 20000 nM | 50 to 1000 nM |
| CCN1CCCCC1c1nc(COc2cc3ncnc(Nc4ccc(Cl)c(Cl)c4)c3cc2OC)no1 (stereo not drawn) [Example 219, N-(3,4-dichlorophenyl)-7-({[5-(1-ethylpiperidin-2-yl)-1,2,4-oxadiazol-3-yl]methyl}oxy)-6-(methyloxy)quinazolin-4-amine] | < 50 nM | 50 to 1000 nM | 50 to 1000 nM |
| COc1cc2c(Nc3cc(Cl)c(Cl)cc3F)ncnc2cc1OC[C@@H]1CO[C@H]2[C@@H]1OC[C@@H]2OC [Example 48, 1,4:3,6-dianhydro-5-deoxy-5-({[4-[(4,5-dichloro-2-fluorophenyl)amino]-6-(methyloxy)quinazolin-7-yl]oxy}methyl)-2-O-methyl-D-glucitol] | < 50 nM | 1000 to 20000 nM | 1000 to 20000 nM |

Further lines, results first:

| IC50 [1] | IC50 [2] | IC50 [3] | SMILES |
| --- | --- | --- | --- |
| < 50 nM | 50 to 1000 nM | < 50 nM | COc1cc2c(Nc3ccc(Cl)c(Cl)c3)ncnc2cc1OCC1CCCCC1 [Example 186, 7-[(cyclohexylmethyl)oxy]-N-(3,4-dichlorophenyl)-6-(methyloxy)quinazolin-4-amine] |
| < 50 nM | 50 to 1000 nM | 50 to 1000 nM | COc1cc2c(Nc3ccc(Cl)c(Cl)c3)ncnc2cc1OCc1csc(C2CCCCN2C)n1 (stereo not drawn) [Example 250, N-(3,4-dichlorophenyl)-6-(methyloxy)-7-({[2-(1-methylpiperidin-2-yl)-1,3-thiazol-4-yl]methyl}oxy)quinazolin-4-amine] |
| < 50 nM | 50 to 1000 nM | 50 to 1000 nM | COc1cc2c(Nc3ccc(Cl)c(Cl)c3)ncnc2cc1OCCC1OCCO1 [Example 188, N-(3,4-dichlorophenyl)-7-{[2-(1,3-dioxolan-2-yl)ethyl]oxy}-6-(methyloxy)quinazolin-4-amine] |
| < 50 nM | 50 to 1000 nM | < 50 nM | COc1cc2c(Nc3ccc(Cl)c(Cl)c3)ncnc2cc1OCc1csc(C2CCN(C)CC2)n1 [Example 214, N-(3,4-dichlorophenyl)-6-(methyloxy)-7-({[2-(1-methylpiperidin-4-yl)-1,3-thiazol-4-yl]methyl}oxy)quinazolin-4-amine] |
| < 50 nM | 1000 to 20000 nM | 50 to 1000 nM | CCN1CCCC(c2nc(COc3cc4ncnc(Nc5ccc(Cl)c(Cl)c5)c4cc3OC)cs2)C1 (stereo not drawn) [Example 254, N-(3,4-dichlorophenyl)-7-({[2-(1-ethylpiperidin-3-yl)-1,3-thiazol-4-yl]methyl}oxy)-6-(methyloxy)quinazolin-4-amine] |
| < 50 nM | 50 to 1000 nM | < 50 nM | COc1cc2c(Nc3ccc(Cl)c(Cl)c3)ncnc2cc1OCc1csc(N(C)C)n1 [Example 240, N-(3,4-dichlorophenyl)-7-({[2-(dimethylamino)-1,3-thiazol-4-yl]methyl}oxy)-6-(methyloxy)quinazolin-4-amine] |
| < 50 nM | 1000 to 20000 nM | 50 to 1000 nM | COc1cc2c(Nc3ccc(Cl)c(Cl)c3)ncnc2cc1OCc1csc(N2CCNCC2)n1 [Example 262, N-(3,4-dichlorophenyl)-6-(methyloxy)-7-{[(2-piperazin-1-yl-1,3-thiazol-4-yl)methyl]oxy}quinazolin-4-amine] |
| < 50 nM | 50 to 1000 nM | 50 to 1000 nM | COc1cc2c(Nc3ccc(Cl)c(Cl)c3)ncnc2cc1OCc1csc(-c2ccc(Cl)cc2)n1 [Example 223, 7-({[2-(4-chlorophenyl)-1,3-thiazol-4-yl]methyl}oxy)-N-(3,4-dichlorophenyl)-6-(methyloxy)quinazolin-4-amine] |
| < 50 nM | 50 to 1000 nM | 50 to 1000 nM | COc1cc2c(Nc3ccc(Cl)c(Cl)c3)ncnc2cc1OCc1csc([C@@H]2CSCN2)n1 [Example 248, N-(3,4-dichlorophenyl)-6-(methyloxy)-7-[({2-[(4S)-1,3-thiazolidin-4-yl]-1,3-thiazol-4-yl}methyl)oxy]quinazolin-4-amine] |
| < 50 nM | 1000 to 20000 nM | 1000 to 20000 nM | COc1cc2c(Nc3ccc(Cl)c(Cl)c3)ncnc2cc1OCc1csc2ccc(Cl)cc12 [Example 225, 7-{[(5-chloro-1-benzothien-3-yl)methyl]oxy}-N-(3,4-dichlorophenyl)-6-(methyloxy)quinazolin-4-amine] |
| < 50 nM | 50 to 1000 nM | 50 to 1000 nM | COc1cc2c(Nc3ccc(Cl)c(Cl)c3)ncnc2cc1OCc1nc2c(s1)CNCC2 [Example 208, N-(3,4-dichlorophenyl)-6-(methyloxy)-7-[(4,5,6,7-tetrahydro[1,3]thiazolo[5,4-c]pyridin-2-ylmethyl)oxy]quinazolin-4-amine] |
| < 50 nM | 50 to 1000 nM | 50 to 1000 nM | COc1cc2c(Nc3ccc(Cl)c(Cl)c3)ncnc2cc1OCC1CC1 [Example 182, 7-[(cyclopropylmethyl)oxy]-N-(3,4-dichlorophenyl)-6-(methyloxy)quinazolin-4-amine] |
